We go through 12 compounds from US8389526B2, “3-heteroarylmethyl-imidazo[1,2-b]pyridazin-6-yl derivatives” (Novartis AG, priority 2009, dated 2013).

Assay [1] concerns the target T1, c-Met receptor tyrosine kinase, GST-c-Met(969-1390) (Homo sapiens, UniProt P08581).
T1 construct: made in house
Nature of the assay: EPK c-Met profiling assay (LanthaScreen TR-FRET kinase assay). The class given is biochemical. Particulars: 2 μM ATP, 0.3 nM enzyme, 60 minutes at room temperature. As for the experimental part:
A number of compounds of the present invention were assayed in an antibody based kinase phosphorylation assay as follows.
Epk c-Met Profiling Assay:
The EPK kinase assay for c-Met receptor tyrosine kinase was developed, using the purified recombinant GST-fusion protein, containing the cytoplasmic domain of the enzyme. GST-c-Met(969-1390) was purified by affinity chromatography.
The kinase assay is based on the LanthaScreen™ technology. LanthaScreen™ is the detection of Time-Resolved Fluorescence Resonance Energy Transfer (TR-FRET) using lanthanide chelates to measure interactions between various binding partners. In a TR-FRET kinase assay, a long-lifetime lanthanide donor species is conjugated to an antibody that specifically binds to a phosphorylated product of a kinase reaction that is labeled with a suitable acceptor fluorophore. This antibody-mediated interaction brings the lanthanide donor and the acceptor into proximity such that resonance energy transfer can take place, resulting in a detectible increase in the FRET signal.
The kinase reactions were performed in 384 well microtiter plates in a total reaction volume of 9.05 μL. The assay plates were prepared with 0.05 μL per well of test compound in the appropriate test concentration, as described under “preparation of compound dilutions”. The reactions were started by combining 4.5 μL of ATP solution with 4.5 μL of enzyme-substrate mix (consisting of kinase and substrate). The final concentrations in the kinase reactions were 35 mM Tris/HCl, 1 mM DTT, 0.025% Tween20, 10 μM sodium orthovanadate, 0.25% BSA, 0.6% DMSO, 10 mM MgCl2, 3 mM MnCl2, 2 μM ATP, 50 nM Fluorescein-PolyEAY, and 0.3 nM enzyme.
The reactions were incubated for 60 minutes at room temperature and stopped by adding 4.5 μL of stop buffer (50 mM EDTA, 0.04% NP40, 20 mM Tris/HCl).
Subsequently 4.5 μL of detection mix (50 mM Tris/HCl, 2 mM DTT, 0.05% Tween20, 20 μM sodium orthovanadate, 1% BSA, 1.72 μg/mL Tb-PY20 antibody) were added to the stopped reactions. After 30 minutes incubation at room temperature, the plates were measured in a BMG Pherastar fluorescence reader. The effect of compound on the enzymatic activity was in all assays obtained from the linear progress curves and determined from one reading (end point measurement).
Preparation of Compound Dilutions
Test compounds were dissolved in DMSO (10 mM) and transferred into 1.4 mL flat bottom or V-shaped Matrix tubes carrying a unique 2D matrix. The stock solutions were stored at −20° C. if not used immediately. For the test procedure the vials were defrosted and identified by a scanner whereby a working sheet was generated that guided the subsequent working steps.
Compound dilutions were made in 96 well plates. This format enabled the assay of maximally 40 individual test compounds at 8 concentrations (single points) including 4 reference compounds. The dilution protocol included the production of “pre-dilution plates”, “master plates” and “assay plates”.
Pre-dilution plates: 96 polypropylene well plates were used as pre-dilution plates. A total of 4 pre-dilution plates were prepared including 10 test compounds each on the plate positions A1-A10, one standard compound at A11 and one DMSO control at A12. All dilution steps were done on a HamiltonSTAR robot.
Master plates: 100 μL of individual compound dilutions including standard compound and controls of the 4 “pre-dilution plates” were transferred into a 384 “master plate” including the following concentrations 1′820, 564, 182, 54.6, 18.2, 5.46, 1.82 and 0.546 μM, respectively in 90% of DMSO.
Assay plates: Identical “assay plates” were then prepared by pipetting 50 nL each of compound dilutions of the “master plates” into 384-well “assay plates” by means of a HummingBird 384-channel dispenser. These plates were used directly for the assay which was performed in a total volume of 9.05 μL. […]

Assay [2] relates to MET-amplified gastric cancer cell line GTL-16. Nature of the assay: GTL-16 proliferation assay (MTS). The class given is cell-based. Particulars: Homo sapiens, GTL-16 cells, 72 h incubation. The protocol:
(§1) C-Met Dependent Cellular Assays
(§2) A number of compounds of the present invention were assayed in a c-Met dependent proliferation and phosphorylation assay as follows.
GTL-16 proliferation assay: the MET-amplified gastric cancer cell line GTL-16 was grown under standard cell culture conditions in DMEM [Dulbecco's Modified Eagle Medium] (high glucose) supplemented with 10% heat-inactivated fetal calf serum and 2 mM L-glutamine. For proliferation assays, cells were seeded at 3000 per well in 96-well-plates. 24 h later, a 10-point dilution series of each compound (3-fold steps, ranging from […]) was prepared in DMSO. Compound were then diluted 1000-fold in growth media in two steps and added to cells in triplicates, resulting in a final volume of […] per well and maximal final compound concentrations of […]. A DMSO-only control was included. Cells were incubated for 72 h and the amount of viable cells was then measured by adding […] of MTS reagent (CellTiter 96® AQueous Non-Radioactive Cell Proliferation Assay, Promega), further incubation for 30′, and reading the optical density at 490 nm.

The next assay concerns the target T2, c-Met (Homo sapiens, UniProt P08581).
T2 construct: adapted to measure the phosphorylation of endogenous cellular proteins in cell lysates; endogenous in cells; host or cells: GTL-16
The experiment in a line: GTL-16 c-Met autophosphorylation measured by AlphaScreen detection. Type of assay: cell-based. The note with it: GTL-16 cells, 1 h incubation, AlphaScreen p-c-Met; read-out: GTL-16 IC50 c-Met phosphorylation. The protocol: as §1, §2
GTL-16 c-Met autophosphorylation measured by AlphaScreen® detection: the human MET-amplified gastric cancer cells GTL-16 were plated in 384-well plates at a density of 10′000 cells in 20 ul complete growth medium (DMEM high glucose supplemented with 10% (v/v) heat inactivated fetal calf serum and of 1 mM sodium pyruvate) and were incubated at […]/5% CO2/95% humidity for 20 h. The cells were washed and the 30 ul assay buffer (DMEM high glucose, 1 mM sodium pyruvate, 0.1% bovine serum albumine) was added. Compounds were diluted in 384-well compound plates to obtain 8-point serial dilutions for 40 test compounds in 90% DMSO, as well as a reference compound plus 16 high- and 16 low (inhibited) controls. These compound plates were prediluted 1:200 in assay buffer into a compound predilution plate and 10 ul of prediluted compound solution were transferred to the cell plate using a 384-well pipettor, resulting in a final DMSO concentration of 0.11%. Cells were incubated for 1 h at […]/5% CO2/95% humidity. The supernatant was removed, the cells were lysed in 25 ul of RIPA [radio immuno precipitation assay] lysis buffer supplemented with 2 mM sodium vanadate and a protease inhibitor cocktail, and cell plates were stored at −80° C.
For detection of p-c-Met, an AlphaScreen®-based assay was used. AlphaScreen® (Amplified Luminescent Proximity Homogeneous Assay, ALPHA, Perkin Elmer, U.S.A) is a non-radioactive bead-based proximity assay technology to study biomolecular interactions in a homogenous microtiter plate format. This technique has been adapted to measure the phosphorylation of endogenous cellular proteins in cell lysates by the use of specific antibody pairs against the total protein and a phospho-specific epitope. 5 ul of cell lysate was transferred to 384-well low volume Proxiplates for detection using a 384-well pipettor. First, 5 ul of a premix of an anti-c-Met antibody (0.25 ug/ml f.c.), a biotinylated PY20 antibody (phosphotyrosine antibody, 0.05 ug/ml f.c.) and AlphaScreen® Protein A-coupled acceptor beads (10 ug/ml f.c.) in RIPA buffer supplemented with 0.25% (v/w) TOP BLOCK, 2 mM sodium vanadate, and a protease inhibitor cocktail and was added, the plate was sealed, and incubated on a plate shaker for 2 hours at room temperature. Second, 2 ul of dilution buffer containing AlphaScreen® Streptavidin-coated donor beads (10 ug/ml f.c.) in RIPA buffer was added, and the plate was incubated on plate shaker as above for a further 2 hours. The plate was read on an AlphaScreen® compatible plate reader, using standard AlphaScreen® settings.
(In general: In Alpha technology, singlet oxygen from a donor bead excites a nearby acceptor bead.)

T1 sequence (P08581 969-1390): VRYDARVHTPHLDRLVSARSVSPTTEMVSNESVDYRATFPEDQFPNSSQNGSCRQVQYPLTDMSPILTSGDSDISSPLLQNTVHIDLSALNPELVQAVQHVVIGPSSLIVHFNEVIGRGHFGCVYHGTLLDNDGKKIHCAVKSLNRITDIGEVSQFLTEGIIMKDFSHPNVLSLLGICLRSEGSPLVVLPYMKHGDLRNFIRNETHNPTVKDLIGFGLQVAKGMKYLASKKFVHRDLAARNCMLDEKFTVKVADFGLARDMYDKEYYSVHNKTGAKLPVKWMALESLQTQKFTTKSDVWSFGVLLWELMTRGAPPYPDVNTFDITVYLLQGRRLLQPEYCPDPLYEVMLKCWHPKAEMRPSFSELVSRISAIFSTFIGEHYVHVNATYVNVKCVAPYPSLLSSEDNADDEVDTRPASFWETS
T2 sequence (P08581 25-1390): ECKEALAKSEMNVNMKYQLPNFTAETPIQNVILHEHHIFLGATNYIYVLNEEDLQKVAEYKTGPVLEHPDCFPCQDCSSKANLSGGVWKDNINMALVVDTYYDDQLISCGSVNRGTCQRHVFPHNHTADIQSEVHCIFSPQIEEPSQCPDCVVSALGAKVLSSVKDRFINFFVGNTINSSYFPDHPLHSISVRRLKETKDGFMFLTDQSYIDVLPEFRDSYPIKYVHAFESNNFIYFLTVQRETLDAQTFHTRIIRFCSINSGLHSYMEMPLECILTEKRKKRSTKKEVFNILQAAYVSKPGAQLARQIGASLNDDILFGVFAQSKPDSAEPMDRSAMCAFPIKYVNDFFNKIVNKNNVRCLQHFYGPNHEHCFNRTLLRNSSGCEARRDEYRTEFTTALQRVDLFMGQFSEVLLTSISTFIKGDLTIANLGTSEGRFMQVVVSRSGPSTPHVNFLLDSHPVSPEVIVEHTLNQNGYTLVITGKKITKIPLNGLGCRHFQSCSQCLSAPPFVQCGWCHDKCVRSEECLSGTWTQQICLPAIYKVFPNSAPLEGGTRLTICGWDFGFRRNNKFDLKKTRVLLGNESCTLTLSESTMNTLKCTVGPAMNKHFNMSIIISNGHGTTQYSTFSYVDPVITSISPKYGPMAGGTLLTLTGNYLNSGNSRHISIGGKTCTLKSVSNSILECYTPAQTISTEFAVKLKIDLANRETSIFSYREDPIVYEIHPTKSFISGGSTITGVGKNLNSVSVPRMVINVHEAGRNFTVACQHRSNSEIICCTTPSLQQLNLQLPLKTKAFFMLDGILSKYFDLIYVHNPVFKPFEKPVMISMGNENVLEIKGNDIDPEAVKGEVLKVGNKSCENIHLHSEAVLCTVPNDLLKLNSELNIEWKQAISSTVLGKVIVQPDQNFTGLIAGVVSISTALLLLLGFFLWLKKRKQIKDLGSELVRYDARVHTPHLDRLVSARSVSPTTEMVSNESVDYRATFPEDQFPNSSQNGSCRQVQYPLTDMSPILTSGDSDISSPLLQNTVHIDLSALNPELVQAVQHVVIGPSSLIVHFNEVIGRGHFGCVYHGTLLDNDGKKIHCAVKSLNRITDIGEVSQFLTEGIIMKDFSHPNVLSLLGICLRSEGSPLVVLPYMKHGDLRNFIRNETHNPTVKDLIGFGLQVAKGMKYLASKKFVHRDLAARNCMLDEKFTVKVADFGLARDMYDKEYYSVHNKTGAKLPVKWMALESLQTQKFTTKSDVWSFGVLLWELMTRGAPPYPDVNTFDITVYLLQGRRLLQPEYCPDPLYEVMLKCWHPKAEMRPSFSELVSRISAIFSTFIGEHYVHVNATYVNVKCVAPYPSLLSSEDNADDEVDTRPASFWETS

With `CC(c1c(F)cc2c(cnn2C(C)C)c1F)c1cnc2ccc(N3CCNC(=O)C3)nn12` (racemic) [Example 57, (rac)-4-(3-(1-(4,6-difluoro-1-isopropyl-1H-indazol-5-yl)ethyl)imidazo[1,2-b]pyridazin-6-yl)piperazin-2-one], the IC50 – broadly, the concentration that inhibits the measured activity by half – in assay [1] was found to be 17 nM; in assay [2], 36 nM; at c-Met it was 9 nM.
On the same counts, the results for `C[C@@H](c1c(F)cc2c(cnn2C)c1F)c1cnc2ccc(N3CCN(C)C(=O)C3)nn12` [Example 50, 4-{3-[(S)-1-(4,6-Difluoro-1-methyl-1H-indazol-5-yl)-ethyl]-imidazo[1,2-b]pyridazin-6-yl}-1-methyl-piperazin-2-one] are 8.3 nM, 11 nM and 2.7 nM.
For `CC(c1c(F)cc2ncccc2c1F)c1cnc2ccc(N3CCN(C)C(=O)C3C)nn12` (racemic) [Example 21, (rac)-4-{3-[1-(5,7-Difluoro-quinolin-6-yl)-ethyl]-imidazo[1,2-b]pyridazin-6-yl}-1,3-dimethylpiperazin-2-one], the results for the IC50 (in assay [1]; in assay [2]; on c-Met) were 19 nM, 9 nM and below 3 nM, respectively.
In the case of `CC(=O)N1CCN(c2ccc3ncc(C(C)c4cc5cccnc5cc4F)n3n2)CC1` (racemic) [Example 42, (rac)-1-(4-{3-[1-(7-Fluoro-quinolin-6-yl)-ethyl]-imidazo[1,2-b]pyridazin-6-yl}-piperazin-1-yl)ethanone], the IC50 in assay [1] stood at 49 nM; in assay [2], 193 nM; at c-Met it was 39 nM.
On the same counts, the results for `CC(c1c(F)cc2ncccc2c1F)c1cnc2ccc(N3CCN(C)CC3)nn12` (racemic) [Example 8, (rac)-5,7-Difluoro-6-{1-[6-(4-methyl-piperazin-1-yl)-imidazo[1,2-b]pyridazin-3-yl]-ethyl}-quinoline] are 5.7 nM, 15.5 nM and below 3 nM.
Turning to `CC(c1c(F)cc2ncccc2c1F)c1cnc2ccc(N3CCN(C(=O)C(F)(F)F)CC3)nn12` (racemic) [Example 17, (rac)-1-(4-{3-[1-(5,7-Difluoro-quinolin-6-yl)-ethyl]-imidazo[1,2-b]pyridazin-6-yl}-piperazin-1-yl)-2,2,2-trifluoro-ethanone], the values for the IC50 (in assay [1]; in assay [2]; on c-Met) were 24 nM, 20 nM and 14 nM, respectively.
On to `CC(c1ccc2ncccc2c1F)c1cnc2ccc(N3CCN(C)C(=O)C3)nn12` (racemic) [Example 46, (rac)-4-{3-[1-(5-Fluoro-quinolin-6-yl)-ethyl]-imidazo[1,2-b]pyridazin-6-yl}-1-methyl-piperazin-2-one], for which the IC50 came to 30 nM in assay [1], 47 nM in assay [2] and 15 nM on c-Met.
Regarding `CC1C(=O)NCCN1c1ccc2ncc([C@@H](C)c3c(F)cc4ncccc4c3F)n2n1` (mixture of isomers) [Example 58, (rac)-4-{3-[(S)-1-(5,7-Difluoro-quinolin-6-yl)-ethyl]-imidazo[1,2-b]pyridazin-6-yl}-3-methyl-piperazin-2-one], the IC50 in assay [1] is 2.7 nM; in assay [2], 7.1 nM; on c-Met, 3.7 nM.
On the same counts, the results for `CC(=O)N1CCN(c2ccc3ncc([C@@H](C)c4c(F)cc5c(cnn5C)c4F)n3n2)CC1` [Example 53, 1-(4-{3-[(S)-1-(4,6-Difluoro-1-methyl-1H-indazol-5-yl)-ethyl]-imidazo[1,2-b]pyridazin-6-yl}-piperazin-1-yl)-ethanone] are 5.2 nM, 22 nM and 4.4 nM.
`C[C@@H](c1cc2cnn(C)c2cc1F)c1cnc2ccc(N3CCN(C)C(=O)C3)nn12` [Example 26, 4-{3-[(S)-1-(6-Fluoro-1-methyl-1H-indazol-5-yl)-ethyl]-imidazo[1,2-b]pyridazin-6-yl}-1-methyl-piperazin-2-one]: the values for the IC50 (in assay [1]; in assay [2]; at c-Met) were 26 nM, 66 nM and 10 nM, respectively.
On the same counts, the results for `O=CN1CCN(c2ccc3ncc(Cc4c(F)cc5ncccc5c4F)n3n2)CC1` [Example 35, 4-[3-(5,7-Difluoro-quinolin-6-ylmethyl)-imidazo[1,2-b]pyridazin-6-yl]-piperazine-1-carbaldehyde] are 9.9 nM, 45 nM and 8 nM.
On the same counts, the results for `CC(c1c(F)cc2ncccc2c1F)c1cnc2ccc(N3CCN(C4CCCC4)C(=O)C3)nn12` (racemic) [Example 20, (rac)-4-{3-[1-(5,7-Difluoro-quinolin-6-yl)-ethyl]-imidazo[1,2-b]pyridazin-6-yl}-1-cyclopentylpiperazin-2-one] are 27 nM, 21 nM and 7 nM.
